Source: the supplement of paper PMC10307832

Experiments:
Experiment in all cases: relative viability (nuclei count vs DMSO), 5 days (fraction); higher = more cells survive
[1] = compound: COc1cc2ncn(-c3cc(OCc4ccccc4C(F)(F)F)c(C(N)=O)s3)c2cc1OC + C[C@]1(O)C[C@@H](c2nc(-c3ccc4ccc(-c5ccccc5)nc4c3)c3c(N)nccn32)C1 [Linsitinib] (partner 1 µM)
Summary of the method: (§1)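 Relative viability is defined as nuclei in treated wells over nuclei in vehicle wells. Duplicate plates were run and medians reported. Lung cancer cell lines in 1536-well plates were dosed by pin tool one day after seeding, with one drug or with a fixed anchor-drug dose plus five library-drug doses (not always all listed) in √10 steps, and nuclei were counted after 5 days.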

[2] = compound: COc1cc2ncn(-c3cc(OCc4ccccc4C(F)(F)F)c(C(N)=O)s3)c2cc1OC + CS(=O)(=O)N1CCN(Cc2cc3nc(-c4cccc5[nH]ncc45)nc(N4CCOCC4)c3s2)CC1 [Pictilisib] (partner 1 µM)
Summary of the method: as §1

[3] = compound: COc1cc2ncn(-c3cc(OCc4ccccc4C(F)(F)F)c(C(N)=O)s3)c2cc1OC + Nc1ncn([C@H]2C[C@H](O)[C@@H](CO)O2)c(=O)n1 [Decitabine] (partner 2 µM)
Summary of the method: as §1

[4] = compound: COc1cc2ncn(-c3cc(OCc4ccccc4C(F)(F)F)c(C(N)=O)s3)c2cc1OC + Cc1nc(NC(=O)N2CCC[C@H]2C(N)=O)sc1-c1ccnc(C(C)(C)C(F)(F)F)c1 [Alpelisib] (partner 2 µM)
Summary of the method: as §1

Cell Line	relative viability ([1]; first compound 0.05 µM)	relative viability ([1]; first compound 0.1581 µM)	relative viability ([1]; first compound 0.5 µM)	relative viability ([1]; first compound 1.581 µM)	relative viability ([1]; first compound 5 µM)	relative viability ([2]; first compound 0.1581 µM)	relative viability ([2]; first compound 0.5 µM)	relative viability ([2]; first compound 1.581 µM)	relative viability ([2]; first compound 5 µM)	relative viability ([3]; first compound 0.05 µM)	relative viability ([3]; first compound 0.1581 µM)	relative viability ([3]; first compound 0.5 µM)	relative viability ([3]; first compound 1.581 µM)	relative viability ([3]; first compound 5 µM)	relative viability ([4]; first compound 0.05 µM)	relative viability ([4]; first compound 0.1581 µM)	relative viability ([4]; first compound 0.5 µM)	relative viability ([4]; first compound 1.581 µM)	relative viability ([4]; first compound 5 µM)	relative viability ([2]; first compound 0.05 µM)
NCI-H1993	0.835	0.782	0.572	0.56	0.528	0.812	0.73	0.553	0.588	0.448	0.631	0.506	0.364	0.413	0.662	0.674	0.605	0.519	0.517	–
NCI-H1437	1.09	1.01	0.11	0.1	0.09	0.392	0.307	0.0976	0.0782	0.564	0.561	0.34	0.266	0.272	1.11	0.959	0.187	0.12	0.0887	0.533
NCI-H596	1.08	1.1	0.87	0.655	0.351	0.405	0.371	0.191	0.178	1.6	1.13	0.935	0.817	0.425	0.496	0.514	0.35	0.29	0.23	0.393
201T	1.05	0.983	0.971	0.46	0.262	0.743	0.682	0.319	0.247	0.866	0.877	0.851	0.562	0.251	1	1.08	0.984	0.475	0.297	0.717
NCI-H358	0.693	0.678	0.349	0.155	0.141	0.347	0.293	0.148	0.14	0.228	0.179	0.219	0.115	0.138	0.852	1	0.386	0.127	0.177	0.362
LOU-NH91	0.94	1.05	0.824	0.526	0.595	0.544	0.51	0.399	0.418	0.841	0.84	0.761	0.513	0.344	0.705	0.843	0.626	0.447	0.488	0.554
HOP-62	0.95	0.966	0.547	0.116	0.0914	0.805	0.566	0.123	0.0836	0.227	0.266	0.237	0.186	0.141	1.02	0.837	0.752	0.199	0.116	0.753
NCI-H1915	1.09	1.05	0.795	0.169	0.106	0.857	0.799	0.111	0.0806	0.249	0.261	0.228	0.143	0.0992	1.05	0.987	0.775	0.161	0.104	0.988
NCI-H3122	0.943	1.07	0.256	0.184	0.221	0.269	0.282	0.212	0.184	0.373	0.426	0.193	0.14	0.103	0.842	0.514	0.203	0.149	0.197	0.578
NCI-H1651	1	1.14	0.528	0.117	0.0945	0.7	0.616	0.111	0.102	0.619	0.64	0.463	0.192	0.263	0.98	0.95	0.777	0.111	0.0858	0.662
PC-14	1.05	0.906	0.463	–	0.106	0.694	0.343	0.0295	0.0382	0.272	0.195	0.141	0.0475	0.0694	0.833	0.944	0.768	0.0614	0.135	0.717
NCI-H647	1.07	1.09	0.267	0.101	0.126	0.425	0.413	0.0779	0.057	0.381	0.275	0.168	0.131	0.107	1.23	1.1	0.214	0.079	0.0802	0.441
SW 1573	0.733	0.869	0.514	0.173	0.275	0.377	0.367	–	0.176	0.572	0.413	0.223	0.0976	0.126	0.828	0.669	0.629	0.326	0.182	0.529
NCI-H441	0.395	0.315	0.205	0.152	0.149	0.352	0.163	0.13	0.131	0.229	0.243	0.18	0.137	0.164	0.771	0.506	0.161	0.177	0.156	0.652
NCI-H661	0.513	0.526	0.39	0.247	0.174	0.328	0.458	0.259	0.257	0.566	0.496	0.363	0.277	0.237	0.855	0.367	0.499	0.26	0.224	0.486
SK-MES-1	1.03	1.01	0.745	–	0.362	0.414	0.292	0.132	0.213	0.371	0.393	0.273	0.166	0.172	0.924	0.883	0.639	0.148	0.553	0.343
NCI-H1792	0.517	0.531	0.301	0.216	0.148	0.254	0.158	0.0865	0.109	0.503	0.65	0.411	0.0575	0.0384	0.732	0.659	0.501	0.31	0.364	0.278

Cell Line	relative viability ([1]; first compound 0.05 µM)	relative viability ([1]; first compound 0.1581 µM)	relative viability ([1]; first compound 0.5 µM)	relative viability ([1]; first compound 1.581 µM)	relative viability ([1]; first compound 5 µM)	relative viability ([2]; first compound 0.1581 µM)	relative viability ([2]; first compound 0.5 µM)	relative viability ([2]; first compound 1.581 µM)	relative viability ([2]; first compound 5 µM)	relative viability ([3]; first compound 0.05 µM)	relative viability ([3]; first compound 0.1581 µM)	relative viability ([3]; first compound 0.5 µM)	relative viability ([3]; first compound 1.581 µM)	relative viability ([3]; first compound 5 µM)	relative viability ([4]; first compound 0.05 µM)	relative viability ([4]; first compound 0.1581 µM)	relative viability ([4]; first compound 0.5 µM)	relative viability ([4]; first compound 1.581 µM)	relative viability ([4]; first compound 5 µM)	relative viability ([2]; first compound 0.05 µM)
NCI-H1355	0.857	0.863	0.617	0.203	0.156	0.399	0.385	0.182	0.151	0.29	0.333	0.282	0.187	0.169	0.879	0.827	0.669	0.208	0.143	0.499
UMC-11	0.962	0.912	0.274	0.152	0.136	0.81	0.226	0.149	0.121	0.309	0.595	0.265	0.253	0.251	0.872	0.928	0.128	0.106	0.101	0.727
A549	0.63	0.714	0.386	0.0698	0.29	0.55	0.0875	0.0523	0.0706	0.253	0.237	0.212	0.0645	0.0614	0.802	0.753	0.186	0.0572	0.0466	0.606
NCI-H2347	0.99	0.915	0.84	0.572	0.759	0.435	0.503	0.394	0.375	0.556	0.589	0.531	0.499	0.482	0.896	0.92	0.813	0.581	0.735	0.689
LCLC-97TM1	0.203	0.182	0.122	0.141	0.115	0.2	0.123	0.134	0.125	0.246	0.238	0.196	0.139	0.114	0.244	0.238	0.144	0.139	0.127	0.203
EMC-BAC-2	0.906	0.843	0.696	0.509	0.164	0.46	0.526	0.352	0.139	1.12	1.05	0.963	0.504	0.253	0.804	0.799	0.639	0.403	0.149	0.581
NCI-H1975	1.01	0.877	0.531	0.207	0.196	0.324	0.257	0.133	0.157	0.359	0.302	0.27	0.153	0.142	0.645	0.609	0.359	0.153	0.152	0.285
BEN	0.931	0.875	0.648	0.235	0.297	0.557	0.471	0.223	0.233	0.816	0.828	0.526	0.403	0.408	1.18	1	0.81	0.262	0.391	0.653
NCI-H23	0.655	0.371	0.274	0.113	0.131	0.339	0.228	0.148	0.117	0.296	0.281	0.176	0.191	0.151	0.836	0.363	0.326	0.137	0.102	0.451
NCI-H520	0.964	0.957	0.477	0.166	0.154	0.316	0.345	0.193	0.172	0.482	0.525	0.261	0.217	0.219	1.08	0.882	0.508	0.186	0.158	0.29
EPLC-272H	1.12	1.15	0.533	0.11	0.11	0.202	0.287	0.173	0.135	0.356	0.362	0.168	0.113	0.133	0.9	0.869	0.402	0.126	0.129	0.354
LCLC-103H	1.21	1.09	0.841	0.53	0.344	0.695	0.54	0.271	0.135	0.729	0.785	0.657	0.355	0.257	0.966	1.04	0.997	0.389	0.248	0.594
NCI-H2405	0.99	0.757	0.372	0.424	0.386	0.265	0.458	0.366	0.27	0.754	0.704	0.506	0.373	0.324	0.788	0.634	0.402	0.401	0.38	0.512
HCC-15	0.865	0.828	0.557	0.14	0.13	0.707	0.549	0.163	0.125	0.592	0.581	0.248	0.176	0.119	0.93	0.749	0.283	0.142	0.1	0.69
RERF-LC-KJ	0.806	0.901	0.559	–	0.357	0.692	0.269	–	0.185	0.802	0.633	0.27	0.198	0.25	0.859	0.849	0.515	0.294	0.622	0.557
NCI-H1944	1.2	1.15	0.923	0.257	0.171	0.363	0.307	0.206	0.166	0.468	0.465	0.399	0.235	0.153	0.871	0.901	0.619	0.173	0.118	0.368
